Experimental findings from patent US6653320B2, “Imidazopyridine derivatives” (Yamanouchi Pharmaceutical Co. Ltd., priority 2000, dated 2003) are described below.

One test deals with HCT116 cells. In kind it is cell-based. The conditions noted are these: HCT116 colon cancer cells, incubation over 72 hours, Alamar Blue, result in words. Here is the method: HCT116 cells from a colon cancer cell line were cultured in McCoy's 5A medium (GIBCO) supplemented with 10% fetal bovine serum. HCT116 cells were inoculated on a 96 well plate (5000 cells/well) followed by overnight incubation. The test compound diluted with the medium was added to the medium in a final concentration of 0.1 to 30 μM (final DMSO concentration, 1%). After incubation for over 72 hours, Alamar Blue reagent was added to the medium. Two hours after the addition, a ratio of fluorescent intensity at an excitation wavelength of 530 nm to that at an emission wavelength of 590 nm was measured to determine the IC50.
In general terms: Alamar Blue is a resazurin reagent that responds to reducing activity.

The target in another test is T1, bovine p110α (Bos taurus, UniProt P32871).
T1 construct: made in house
In words: Inhibition of PI3K (p110α subtype). In kind it is biochemical. The conditions noted are these: compared with known PI3K inhibitor LY294002. Here is the method:
The resulting mixture was stirred and then centrifuged. After the organic layer was extracted twice with 150 μl of MeOH/1M HCl (1:1). The radioactivity was measured using Cerenkov light.

In another test the test system is A375 cells. As to the kind of experiment: Melanoma cell growth inhibition. It is filed as cell-based. The conditions noted are these: Homo sapiens, A-375, incubation over 46 hours, Alamar Blue. Here is the method:
A375 cells from a melanoma cell line were cultured in DMEM medium (GIBCO) supplemented with 10% fetal bovine serum. A375 cells at 10,000 cells/100 μl were added to a 96 well plate which contained 1 μl/well of the test compounds (final concentration of 0.001˜30 μM). After incubation for over 46 hours, Alamar Blue reagent was added to the medium (10 μl/well). Two hours after the addition, a ratio of fluorescent intensity at an excitation wavelength of 530 nm to that at an emission wavelength of 590 nm was measured to determine the IC50 of the test compounds in the same manner as in the above examples.

T1 sequence (P32871 whole entry): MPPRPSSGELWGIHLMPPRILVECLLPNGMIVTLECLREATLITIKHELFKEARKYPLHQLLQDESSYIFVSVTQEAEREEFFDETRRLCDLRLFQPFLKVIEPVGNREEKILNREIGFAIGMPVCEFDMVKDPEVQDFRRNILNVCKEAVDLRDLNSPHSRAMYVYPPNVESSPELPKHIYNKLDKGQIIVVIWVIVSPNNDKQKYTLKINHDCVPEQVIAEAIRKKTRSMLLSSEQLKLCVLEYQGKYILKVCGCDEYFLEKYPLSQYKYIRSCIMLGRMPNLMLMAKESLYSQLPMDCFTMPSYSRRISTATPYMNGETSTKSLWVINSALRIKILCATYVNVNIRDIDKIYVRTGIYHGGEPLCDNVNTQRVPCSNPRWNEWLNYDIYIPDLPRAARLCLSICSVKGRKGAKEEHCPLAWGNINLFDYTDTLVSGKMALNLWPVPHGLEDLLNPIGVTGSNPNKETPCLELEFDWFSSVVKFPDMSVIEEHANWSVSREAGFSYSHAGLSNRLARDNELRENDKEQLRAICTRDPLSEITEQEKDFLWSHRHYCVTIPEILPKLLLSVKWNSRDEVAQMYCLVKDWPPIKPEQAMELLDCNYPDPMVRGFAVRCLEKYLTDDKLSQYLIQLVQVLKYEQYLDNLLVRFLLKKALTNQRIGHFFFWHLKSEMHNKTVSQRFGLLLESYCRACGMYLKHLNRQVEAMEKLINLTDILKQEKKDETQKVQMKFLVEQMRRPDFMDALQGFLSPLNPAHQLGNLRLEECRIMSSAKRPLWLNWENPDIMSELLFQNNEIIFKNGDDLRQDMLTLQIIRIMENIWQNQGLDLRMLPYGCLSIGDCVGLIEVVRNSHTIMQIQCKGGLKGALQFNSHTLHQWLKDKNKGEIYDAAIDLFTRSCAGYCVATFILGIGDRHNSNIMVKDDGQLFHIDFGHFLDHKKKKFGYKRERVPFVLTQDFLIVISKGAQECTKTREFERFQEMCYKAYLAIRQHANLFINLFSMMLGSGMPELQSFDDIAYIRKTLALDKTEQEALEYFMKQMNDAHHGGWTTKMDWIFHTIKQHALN

On to `Cc1ccc([N+](=O)[O-])cc1S(=O)(=O)n1ccc(-c2c(C)nc3ccc(Br)cn23)n1` [Compound 6, 3-(6-Bromo-2-methylimidazo[1,2-a]pyridin-3-yl)-1H-pyrazol-1-yl 2-methyl-5-nitrophenyl sulfone], for which, in the test on HCT116 cells, the “cancer cell growth inhibition activity” value is given as “good cancer cell growth inhibition activity”. The “PI3K inhibition, strength relative to LY294002” value on bovine p110α is reported as “more than 10 times”.
As usually defined, the IC50 is the midpoint of a concentration-inhibition curve. For the compound `Cc1ccc2ncc(C=NN(C)S(=O)(=O)c3cc([N+](=O)[O-])ccc3C)n2c1` [Compound 99, 1′,2-dimethyl-2′-[(6-methylimidazo[1,2-a]pyridin-3-yl)methylidene]-5-nitrobenzenesulfonohydrazide], the IC50 in the test on A375 cells is below 1000 nM.
